# ChEMBL document CHEMBL1152885 (Bioorg Med Chem Lett, 2009)
# pKi: −log10 of the molar value.
# How the values were obtained:
# [1] = molecular target: Carbonic anhydrase 5B, mitochondrial (Homo sapiens, UniProt Q9Y2D0)
# Carbonic anhydrase 12 = Carbonic anhydrase 12 (Homo sapiens, UniProt O43570)
# Carbonic anhydrase 3 = Carbonic anhydrase 3 (Homo sapiens, UniProt P07451)
# Carbonic anhydrase 9 = Carbonic anhydrase 9 (Homo sapiens, UniProt Q16790)
# Carbonic anhydrase 1 = Carbonic anhydrase 1 (Homo sapiens, UniProt P00915)
# Chain of Carbonic anhydrase 1 (P00915 whole entry): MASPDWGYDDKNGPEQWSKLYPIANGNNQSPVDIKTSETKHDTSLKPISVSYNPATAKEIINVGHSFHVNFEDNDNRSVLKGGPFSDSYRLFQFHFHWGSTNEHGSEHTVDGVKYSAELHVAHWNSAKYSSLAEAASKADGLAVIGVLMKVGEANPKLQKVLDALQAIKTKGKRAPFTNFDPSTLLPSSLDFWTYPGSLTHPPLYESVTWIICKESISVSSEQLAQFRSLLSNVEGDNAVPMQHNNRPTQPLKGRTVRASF
# Carbonic anhydrase 6 = Carbonic anhydrase 6 (Homo sapiens, UniProt P23280)
# Chain of Carbonic anhydrase 6 (P23280 whole entry): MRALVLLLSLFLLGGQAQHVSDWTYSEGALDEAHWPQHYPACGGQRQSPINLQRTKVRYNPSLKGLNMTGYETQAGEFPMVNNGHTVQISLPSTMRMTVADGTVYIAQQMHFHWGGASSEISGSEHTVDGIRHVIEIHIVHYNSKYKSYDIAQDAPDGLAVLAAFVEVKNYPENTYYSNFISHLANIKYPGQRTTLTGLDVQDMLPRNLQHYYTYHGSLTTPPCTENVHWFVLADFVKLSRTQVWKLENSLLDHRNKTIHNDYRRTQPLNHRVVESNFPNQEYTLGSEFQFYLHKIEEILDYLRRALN
# Carbonic anhydrase 14 = Carbonic anhydrase 14 (Homo sapiens, UniProt Q9ULX7)
# Chain of Carbonic anhydrase 14 (Q9ULX7 whole entry): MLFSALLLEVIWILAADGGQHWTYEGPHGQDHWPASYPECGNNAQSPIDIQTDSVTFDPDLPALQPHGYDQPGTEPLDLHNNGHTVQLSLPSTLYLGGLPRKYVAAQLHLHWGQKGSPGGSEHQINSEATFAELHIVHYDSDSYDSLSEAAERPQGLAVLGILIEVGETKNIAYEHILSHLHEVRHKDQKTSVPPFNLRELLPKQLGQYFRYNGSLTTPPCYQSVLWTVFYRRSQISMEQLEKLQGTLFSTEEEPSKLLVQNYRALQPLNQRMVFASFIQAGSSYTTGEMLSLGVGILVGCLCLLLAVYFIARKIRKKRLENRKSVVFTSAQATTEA
# Carbonic anhydrase 4 = Carbonic anhydrase 4 (Homo sapiens, UniProt P22748)
# Chain of Carbonic anhydrase 4 (P22748 whole entry): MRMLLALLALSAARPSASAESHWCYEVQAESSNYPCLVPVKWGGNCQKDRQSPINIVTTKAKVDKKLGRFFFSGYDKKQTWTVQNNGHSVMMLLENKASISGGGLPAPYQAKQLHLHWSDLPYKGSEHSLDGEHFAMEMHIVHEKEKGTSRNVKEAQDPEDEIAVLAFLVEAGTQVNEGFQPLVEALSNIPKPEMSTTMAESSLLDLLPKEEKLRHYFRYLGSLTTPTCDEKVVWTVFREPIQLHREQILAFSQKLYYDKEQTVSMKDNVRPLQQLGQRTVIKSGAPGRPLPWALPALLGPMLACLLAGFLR
# Carbonic anhydrase 13 = Carbonic anhydrase 13 (Mus musculus, UniProt Q9D6N1)
# Chain of Carbonic anhydrase 13 (Q9D6N1 whole entry): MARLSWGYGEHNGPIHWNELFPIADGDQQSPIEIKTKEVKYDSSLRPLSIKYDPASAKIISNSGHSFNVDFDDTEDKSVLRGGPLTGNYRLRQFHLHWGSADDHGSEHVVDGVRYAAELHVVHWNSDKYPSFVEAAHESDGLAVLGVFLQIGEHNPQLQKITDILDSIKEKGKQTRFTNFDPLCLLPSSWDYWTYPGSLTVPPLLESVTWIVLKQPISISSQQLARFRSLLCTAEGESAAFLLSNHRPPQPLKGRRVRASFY
# Chain of Carbonic anhydrase 5B, mitochondrial (Q9Y2D0 whole entry): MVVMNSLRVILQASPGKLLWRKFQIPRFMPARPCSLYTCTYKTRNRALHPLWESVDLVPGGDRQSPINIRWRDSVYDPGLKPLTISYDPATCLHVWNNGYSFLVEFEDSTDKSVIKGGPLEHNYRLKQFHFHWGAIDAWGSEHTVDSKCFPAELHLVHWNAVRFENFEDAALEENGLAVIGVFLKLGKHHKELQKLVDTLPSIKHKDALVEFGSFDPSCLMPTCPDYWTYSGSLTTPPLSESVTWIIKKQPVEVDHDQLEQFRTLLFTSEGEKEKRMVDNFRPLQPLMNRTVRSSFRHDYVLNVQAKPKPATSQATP
# Chain of Carbonic anhydrase 3 (P07451 whole entry): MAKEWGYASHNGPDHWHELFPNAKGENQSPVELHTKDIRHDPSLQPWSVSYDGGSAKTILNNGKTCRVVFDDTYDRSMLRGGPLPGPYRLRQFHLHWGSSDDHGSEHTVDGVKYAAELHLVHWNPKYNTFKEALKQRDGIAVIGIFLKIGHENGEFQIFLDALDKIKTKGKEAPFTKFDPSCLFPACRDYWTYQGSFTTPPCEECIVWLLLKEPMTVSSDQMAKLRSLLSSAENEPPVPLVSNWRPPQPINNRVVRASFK
# Chain of Carbonic anhydrase 12 (O43570 whole entry): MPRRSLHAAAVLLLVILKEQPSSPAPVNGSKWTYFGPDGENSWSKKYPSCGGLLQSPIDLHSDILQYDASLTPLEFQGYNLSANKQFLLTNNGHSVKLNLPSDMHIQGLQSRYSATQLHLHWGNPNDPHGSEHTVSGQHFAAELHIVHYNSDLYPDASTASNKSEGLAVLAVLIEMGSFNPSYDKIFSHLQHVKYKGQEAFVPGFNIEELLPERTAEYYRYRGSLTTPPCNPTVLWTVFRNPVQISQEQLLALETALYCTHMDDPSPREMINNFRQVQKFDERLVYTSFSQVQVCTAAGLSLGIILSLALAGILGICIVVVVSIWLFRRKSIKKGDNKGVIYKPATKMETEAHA
smiles,measurement,setting,value
NS(=O)(=O)c1ccc2[nH]c(-c3cscn3)nc2c1,pKi,[1],7.39
same,pKi,Carbonic anhydrase 12,7.75
same,pKi,Carbonic anhydrase 3,4.46
same,pKi,Carbonic anhydrase 9,8.19
same,pKi,Carbonic anhydrase 1,7.29
same,pKi,Carbonic anhydrase 6,7.60
same,pKi,Carbonic anhydrase 14,6.37
same,pKi,Carbonic anhydrase 4,7.31
same,pKi,Carbonic anhydrase 13,5.31
